PMC9783868, “Indoline-5-Sulfonamides: A Role of the Core in Inhibition of Cancer-Related Carbonic Anhydrases, Antiproliferative Activity and Circumventing of Multidrug Resistance” (Pharmaceuticals, 2022)
Where two headings read alike, the source gives them in different places.

What was measured:
hCA II = biological target: T1, hCA II (Homo sapiens, UniProt P00918); assay: CA inhibition, stopped-flow CO2 hydration assay; type: biochemical; conditions: stopped-flow technique; mean from three assays
T1 construct: made in house
Description: (§1) The CO2 hydration activity of the four hCA isoforms was monitored using an Applied Photophysics stopped-flow instrument. Phenol red (at a concentration of 0.2 mM) was used as an indicator, working at the absorbance maximum of 557 nm, with 10 mM HEPES (pH 7.4) as a buffer, and 20 mM NaClO4 (for maintaining constant the ionic strength), following the initial rates of the CA-catalyzed CO2 hydration reaction for a period of 10–100 s. To determine the kinetic parameters by Lineweaver-Burk plots and the inhibition constants, a concentration of CO2 between 1.7 to 17 mM was used. At least six measurements of the original 5–10% reaction were used to assess the initial velocity for each inhibitor. The uncatalyzed rates were determined and detracted from the total observed rates. Stock inhibitor solutions (10–100 mM) were prepared in distilled-deionized water, and dilutions up to 0.1 nM were done with the buffer test. […] The inhibition constants were obtained by non-linear least-squares methods using PRISM 6 and the Cheng-Prusoff equation, as reported earlier, and represent the mean from at least three different determinations.

hCA IX = biological target: T2, hCA IX (Homo sapiens, UniProt Q16790); assay: CA inhibition, stopped-flow CO2 hydration assay; type: biochemical; conditions: stopped-flow technique; mean from three assays
T2 construct: made in house
Description: as §1

hCA XII = biological target: T3, hCA XII (Homo sapiens, UniProt O43570); assay: CA inhibition, stopped-flow CO2 hydration assay; type: biochemical; conditions: stopped-flow technique; mean from three assays
T3 construct: made in house
T3 sequence (O43570 25-354): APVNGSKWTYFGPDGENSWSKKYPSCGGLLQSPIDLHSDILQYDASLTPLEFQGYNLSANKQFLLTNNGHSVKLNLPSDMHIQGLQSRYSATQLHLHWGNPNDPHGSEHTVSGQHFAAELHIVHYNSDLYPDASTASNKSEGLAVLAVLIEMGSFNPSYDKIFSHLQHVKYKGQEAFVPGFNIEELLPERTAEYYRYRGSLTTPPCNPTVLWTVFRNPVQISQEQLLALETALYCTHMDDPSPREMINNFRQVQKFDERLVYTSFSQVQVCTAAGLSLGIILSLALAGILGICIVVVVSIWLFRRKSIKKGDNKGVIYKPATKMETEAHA
Description: as §1

hCA I = biological target: T4, hCA I (Homo sapiens, UniProt P00915); assay: CA inhibition, stopped-flow CO2 hydration assay; type: biochemical; conditions: stopped-flow technique; mean from three assays
T4 construct: made in house
T4 sequence (P00915 whole entry): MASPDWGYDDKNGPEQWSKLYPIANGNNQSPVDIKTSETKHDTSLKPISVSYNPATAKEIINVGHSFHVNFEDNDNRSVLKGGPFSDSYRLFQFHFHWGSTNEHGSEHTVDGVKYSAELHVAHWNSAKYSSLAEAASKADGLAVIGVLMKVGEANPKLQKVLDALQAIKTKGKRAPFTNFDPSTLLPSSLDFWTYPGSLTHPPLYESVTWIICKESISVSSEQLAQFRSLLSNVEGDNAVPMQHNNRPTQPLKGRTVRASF
Description: as §1

MCF7 cells = assay: Antiproliferative activity, MTT test; type: cell-based; conditions: Homo sapiens, MTT assay after 72 h exposure
Description: A series of synthesized indoline-5-sulfonamides was tested on the MCF7 cancer cell line under normoxia and hypoxia using the MTT test.
The MDR subline K562/4 [77] (kind gift of Dr. Alexander Shtil, Blokhin N.N. National Medical Research Center of Oncology) was obtained by stepwise selection of K562 cells for survival under continuous exposure to Dox. This subline expresses the MDR1 gene and functional P-gp and is characterized by a high resistance index for Dox. […] Cells in the logarithmic phase of growth were used in the experiments. The growth inhibitory activity of compounds was assessed by the MTT test based on the metabolism of the MTT reagent (3-[4,5-dimethylthiazol-2-yl]-2,5-diphenyltetrazolium bromide) (Applichem) in living cells, with modifications as described previously in [49]. Compounds at different concentrations in 100 μL of the appropriate medium were added, and the cells were grown for 72 h. The hypoxia (1% O2) conditions were simulated in Binder multigas incubator, as described in [49]. After incubation with compounds, the medium was removed, the MTT reagent that was dissolved in the medium was added to the final concentration of 0.2 mg/mL to each well, and the incubation was performed for 2 h. Then the cell supernatants were removed, and purple formazan crystals were dissolved in 100% DMSO (350 μL per well). Culture plates were gently shaken, and the absorbance was measured at 571 nm with a reference wavelength of 630 nm on a MultiScan reader (ThermoFisher, Waltham, MA, USA). The viability of the cells was expressed as a percentage of the control. Dose-response curves were analyzed by regression analysis using sigmoid curves (Log(concentration) vs. normalized absorbance).
All results were reported as means ± SD. One-way analysis of variance was used for the analysis of data. Differences were defined as significant at p < 0.05. GraphPad Prism7 (GraphPad Software, San Diego, CA, USA) was used for the determination of the half-maximal inhibitory concentration (IC50) values.

[1] = hypoxia (1% O2), read-out: IC50 against MCF7 Cells, Hypoxia
[2] = normoxia, read-out: IC50 against MCF7 Cells, Normoxia

| SMILES | Ki (hCA II) | Ki (hCA IX) | Ki (hCA XII) | Ki (hCA I) | IC50 (MCF7 cells; [1]) | IC50 (MCF7 cells; [2]) | melting point |
| --- | --- | --- | --- | --- | --- | --- | --- |
| NS(=O)(=O)c1ccc2c(c1)CCN2C(=O)C1CCCC1 [Compound 4s, 1-(Cyclopentanecarbonyl)indoline-5-sulfonamide] | 7.1 nM | 133 nM | 88.1 nM | 60.9 nM | > 50000 nM | > 50000 nM | 233 to 235 °C |
| NS(=O)(=O)c1ccc2c(c1)CCN2C(=O)c1ccc([N+](=O)[O-])cc1 [Compound 4p, 1-(4-Nitrobenzoyl)indoline-5-sulfonamide] | 42.2 nM | 2110 nM | 198 nM | 60.5 nM | 39900 ± 3500 nM | 48800 ± 4400 nM | 247 to 249 °C |
| NS(=O)(=O)c1ccc2c(c1)CCN2C(=O)C1CCCCC1 [Compound 4u, 1-(Cyclohexanecarbonyl)indoline-5-sulfonamide] | 1.8 nM | 223 nM | > 10000 nM | 67 nM | 39200 ± 3400 nM | 37100 ± 3500 nM | > 250 °C |
| NS(=O)(=O)c1ccc2c(c1)CCN2C(=O)c1ccccc1 [Compound 4a, 1-Benzoylindoline-5-sulfonamide] | 5.4 nM | > 10000 nM | 258 nM | 79 nM | 36900 ± 3500 nM | > 50000 nM | > 250 °C |
| Cc1cccc(C(=O)N2CCc3cc(S(N)(=O)=O)ccc32)c1 [Compound 4i, 1-(3-Methylbenzoyl)indoline-5-sulfonamide] | 36.1 nM | > 10000 nM | 93.9 nM | 220 nM | 43600 ± 4000 nM | > 50000 nM | 247 to 249 °C |
| COc1cccc(C(=O)N2CCc3cc(S(N)(=O)=O)ccc32)c1 [Compound 4j, 1-(3-Methoxybenzoyl)indoline-5-sulfonamide] | 9.2 nM | > 10000 nM | 110 nM | 67.7 nM | > 50000 nM | 46200 ± 3600 nM | 225 to 227 °C |
| COc1ccc(C(=O)N2CCc3cc(S(N)(=O)=O)ccc32)cc1 [Compound 4k, 1-(4-Methoxybenzoyl)indoline-5-sulfonamide] | 9.3 nM | 173 nM | > 10000 nM | 77.7 nM | > 50000 nM | > 50000 nM | 240 to 242 °C |
| NS(=O)(=O)c1ccc2c(c1)CCN2C(=O)CC1CCCC1 [Compound 4t, 1-(2-Cyclopentylacetyl)indoline-5-sulfonamide] | 3.5 nM | 177 nM | > 10000 nM | 51.6 nM | 36000 ± 3300 nM | 38000 ± 3500 nM | 184 to 186 °C |
| NS(=O)(=O)c1ccc2c(c1)CCN2C(=O)c1ccc(Cl)cc1 [Compound 4g, 1-(4-Chlorobenzoyl)indoline-5-sulfonamide] | 66.2 nM | > 10000 nM | 57 nM | 242 nM | 24200 ± 2100 nM | 36500 ± 3300 nM | > 250 °C |
| COc1ccc(C(=O)N2CCc3cc(S(N)(=O)=O)ccc32)c(OC)c1 [Compound 4l, 1-(2,4-Dimethoxybenzoyl)indoline-5-sulfonamide] | 4 nM | 203 nM | 113 nM | 71.5 nM | > 50000 nM | 37000 ± 3000 nM | 249 to 251 °C |
| NS(=O)(=O)c1ccc2c(c1)CCN2C(=O)c1ccc(Cl)c(Cl)c1 [Compound 4h, 1-(3,4-Dichlorobenzoyl)indoline-5-sulfonamide] | 54 nM | > 10000 nM | 56 nM | 350 nM | 48700 ± 4500 nM | 35200 ± 3500 nM | > 250 °C |
| CSc1ccc(C(=O)N2CCc3cc(S(N)(=O)=O)ccc32)cc1 [Compound 4n, 1-(4-(Methylthio)benzoyl)indoline-5-sulfonamide] | 9.3 nM | 1990 nM | 91 nM | 71.4 nM | > 50000 nM | 18400 ± 1600 nM | 245 to 247 °C |
| NS(=O)(=O)c1ccc2c(c1)CCN2Cc1ccccc1 [Compound 10, 1-Benzylindoline-5-sulfonamide] | 3 nM | > 10000 nM | > 10000 nM | 41 nM | 34800 ± 3200 nM | 23600 ± 2000 nM | 144 to 146 °C |
| NS(=O)(=O)c1ccc2c(c1)CCN2C(=O)c1ccncc1 [Compound 4q, 1-Isonicotinoylindoline-5-sulfonamide] | 12.5 nM | 2390 nM | > 10000 nM | 64 nM | > 50000 nM | > 50000 nM | > 250 °C |
| NS(=O)(=O)c1ccc2c(c1)CCN2C(=O)c1ccccc1[N+](=O)[O-] [Compound 4o, 1-(2-Nitrobenzoyl)indoline-5-sulfonamide] | 4.5 nM | > 10000 nM | 120 nM | 83.4 nM | 39500 ± 3400 nM | 43700 ± 3700 nM | 238 to 240 °C |
| NS(=O)(=O)c1ccc2c(c1)CCN2C(=O)c1cccs1 [Compound 4r, 1-(Thiophene-2-carbonyl)indoline-5-sulfonamide] | 5 nM | 177 nM | 147 nM | 42.2 nM | 39100 ± 3900 nM | 47700 ± 3800 nM | > 250 °C |
| NS(=O)(=O)c1ccc2c(c1)CCN2C(=O)c1c(F)cccc1F [Compound 4d, 1-(2,6-Difluorobenzoyl)indoline-5-sulfonamide] | 9.1 nM | 1330 nM | 41.3 nM | 268 nM | 35900 ± 3400 nM | > 50000 nM | 244 to 246 °C |
| NS(=O)(=O)c1ccc2c(c1)CCC2NC(=O)c1c(F)c(F)c(F)c(F)c1F (stereo not shown) [Compound 3, reference compound] |  |  |  |  | > 50000 nM | > 50000 nM |  |
